The record followed here is ChEMBL document CHEMBL2074153, “Identification of organic anion transporting polypeptide 4 (Oatp4) as a major full-length isoform of the liver-specific transporter-1 (rlst-1) in rat liver” (FEBS Lett, 2000).

A word on the Km: it is the concentration of substrate that gives half-maximal velocity.

Series [1] deals with T1, Solute carrier organic anion transporter family member 1B2 (Rattus norvegicus, UniProt Q9QZX8).
T1 sequence (Q9QZX8 whole entry): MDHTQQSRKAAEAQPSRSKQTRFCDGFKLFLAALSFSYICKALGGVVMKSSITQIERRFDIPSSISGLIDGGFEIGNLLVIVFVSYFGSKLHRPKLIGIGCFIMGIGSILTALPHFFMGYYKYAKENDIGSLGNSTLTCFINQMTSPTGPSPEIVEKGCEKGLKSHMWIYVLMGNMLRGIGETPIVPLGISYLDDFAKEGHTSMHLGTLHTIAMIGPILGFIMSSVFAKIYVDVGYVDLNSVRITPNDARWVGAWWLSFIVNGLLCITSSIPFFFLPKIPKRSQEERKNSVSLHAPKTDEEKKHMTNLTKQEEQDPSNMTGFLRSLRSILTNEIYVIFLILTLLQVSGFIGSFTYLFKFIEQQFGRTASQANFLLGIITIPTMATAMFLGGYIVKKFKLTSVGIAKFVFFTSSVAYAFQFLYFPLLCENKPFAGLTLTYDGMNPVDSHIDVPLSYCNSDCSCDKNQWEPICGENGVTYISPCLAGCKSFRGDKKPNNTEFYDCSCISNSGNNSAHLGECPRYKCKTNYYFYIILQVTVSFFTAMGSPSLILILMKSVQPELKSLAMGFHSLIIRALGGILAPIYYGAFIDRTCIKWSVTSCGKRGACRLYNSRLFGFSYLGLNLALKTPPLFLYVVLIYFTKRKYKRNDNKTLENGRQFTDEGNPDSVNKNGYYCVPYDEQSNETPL
In words: (§1) TP_TRANSPORTER: uptake in Xenopus laevis oocytes. Conditions: oocyte. Format: functional, cell-based.

Substrate in series [2]: O=C1OC(c2ccc(O)c(S(=O)(=O)O)c2)(c2ccc(O)c(S(=O)(=O)O)c2)c2c(Br)c(Br)c(Br)c(Br)c21
The description is as §1. In kind it is functional, cell-based, Oocyte.

Take `N[C@@H](Cc1cc(I)c(Oc2ccc(O)c(I)c2)c(I)c1)C(=O)O` [LIOTHYRONINE]: in series [1], the Activity result was “substrate [+]”.
Regarding `N[C@@H](Cc1cc(I)c(Oc2cc(I)c(O)c(I)c2)c(I)c1)C(=O)O` [LEVOTHYROXINE], in series [1], the Activity result is “substrate [+]”.

B1: Solute carrier organic anion transporter family member 1B2 (Rattus norvegicus) (protein)
chain: MDHTQQSRKAAEAQPSRSKQTRFCDGFKLFLAALSFSYICKALGGVVMKSSITQIERRFDIPSSISGLIDGGFEIGNLLVIVFVSYFGSKLHRPKLIGIGCFIMGIGSILTALPHFFMGYYKYAKENDIGSLGNSTLTCFINQMTSPTGPSPEIVEKGCEKGLKSHMWIYVLMGNMLRGIGETPIVPLGISYLDDFAKEGHTSMHLGTLHTIAMIGPILGFIMSSVFAKIYVDVGYVDLNSVRITPNDARWVGAWWLSFIVNGLLCITSSIPFFFLPKIPKRSQEERKNSVSLHAPKTDEEKKHMTNLTKQEEQDPSNMTGFLRSLRSILTNEIYVIFLILTLLQVSGFIGSFTYLFKFIEQQFGRTASQANFLLGIITIPTMATAMFLGGYIVKKFKLTSVGIAKFVFFTSSVAYAFQFLYFPLLCENKPFAGLTLTYDGMNPVDSHIDVPLSYCNSDCSCDKNQWEPICGENGVTYISPCLAGCKSFRGDKKPNNTEFYDCSCISNSGNNSAHLGECPRYKCKTNYYFYIILQVTVSFFTAMGSPSLILILMKSVQPELKSLAMGFHSLIIRALGGILAPIYYGAFIDRTCIKWSVTSCGKRGACRLYNSRLFGFSYLGLNLALKTPPLFLYVVLIYFTKRKYKRNDNKTLENGRQFTDEGNPDSVNKNGYYCVPYDEQSNETPL
Regarding B1, in series [2], the Michaelis constant (Km) came to 1.1 µM.
